Source: ChEMBL document CHEMBL1201861, “Genomics of Drug Sensitity in Cancer screening data, Wellcome Trust Sanger Institute”
pIC50: −log10 of the molar value.

Key:
Assay in all cases: cells
CTB-1 = type: functional, cell-based, Homo sapiens; details: Homo sapiens, CTB-1
Description: SANGER: Inhibition of human CTB-1 cell growth in a cell viability assay.

Calu-6 = type: functional, cell-based, Homo sapiens; details: Homo sapiens, Calu-6;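 further: growth of human Calu-6 cells, read out by a cell viability assay, IC50 marking inhibition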
Description: SANGER: Inhibition of human Calu-6 cell growth in a cell viability assay.

D-502MG = type: functional, cell-based, Homo sapiens; details: Homo sapiens, D-502MG
Description: SANGER: Inhibition of human D-502MG cell growth in a cell viability assay.

DB = type: functional, cell-based, Homo sapiens; details: Homo sapiens, DB
Description: SANGER: Inhibition of human DB cell growth in a cell viability assay.

DEL = type: functional, cell-based, Homo sapiens; details: Homo sapiens, DEL;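 further: growth inhibition of the human DEL cell line, read out with a cell viability assay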
Description: SANGER: Inhibition of human DEL cell growth in a cell viability assay.

EM-2 = type: functional, cell-based, Homo sapiens; details: Homo sapiens, EM-2;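 further: growth inhibition of EM-2 cells, read out with a cell viability assay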
Description: SANGER: Inhibition of human EM-2 cell growth in a cell viability assay.

ES5 = type: functional, cell-based, Homo sapiens; details: Homo sapiens, ES5;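 further: growth inhibition of human ES5 cells, read out by a cell viability assay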
Description: SANGER: Inhibition of human ES5 cell growth in a cell viability assay.

ES6 = type: functional, cell-based; details: Homo sapiens;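 further: growth inhibition of human ES6 cells, read out with a cell viability assay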
Description: SANGER: Inhibition of human ES6 cell growth in a cell viability assay.

ES8 = type: functional, cell-based, Homo sapiens; details: Homo sapiens, ES8;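 further: growth inhibition of human ES8 cells, read out with a cell viability assay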
Description: SANGER: Inhibition of human ES8 cell growth in a cell viability assay.

EW-13 = type: functional, cell-based, Homo sapiens; details: Homo sapiens, EW-13; read-out: IC50;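 further: growth inhibition of EW-13 cells, read out with a cell viability assay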
Description: SANGER: Inhibition of human EW-13 cell growth in a cell viability assay.

GAK = type: functional, cell-based, Homo sapiens; details: Homo sapiens, GAK;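 further: cell growth inhibition read out by a cell viability assay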
Description: SANGER: Inhibition of human GAK cell growth in a cell viability assay.

HDLM-2 = type: functional, cell-based, Homo sapiens; details: Homo sapiens, HDLM-2;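 further: cell viability assay measuring suppression of HDLM-2 proliferation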
Description: SANGER: Inhibition of human HDLM-2 cell growth in a cell viability assay.

HT-144 = type: functional, cell-based, Homo sapiens; details: Homo sapiens, HT-144
Description: SANGER: Inhibition of human HT-144 cell growth in a cell viability assay.

IST-MEL1 = type: functional, cell-based, Homo sapiens; details: Homo sapiens, IST-MEL1;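 further: growth inhibition of the cell line, read out with a cell viability assay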
Description: SANGER: Inhibition of human IST-MEL1 cell growth in a cell viability assay.

K5 = type: functional, cell-based, Homo sapiens; details: Homo sapiens, K5
Description: SANGER: Inhibition of human K5 cell growth in a cell viability assay.

L-428 = type: functional, cell-based, Homo sapiens; details: Homo sapiens, L-428
Description: SANGER: Inhibition of human L-428 cell growth in a cell viability assay.

LB2518-MEL = type: functional, cell-based; details: Homo sapiens;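 further: growth inhibition of human LB2518-MEL cells, measured with a cell viability assay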
Description: SANGER: Inhibition of human LB2518-MEL cell growth in a cell viability assay.

LB831-BLC = type: functional, cell-based, Homo sapiens; details: Homo sapiens, LB831-BLC;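 further: growth inhibition of LB831-BLC cells, read out with a cell viability assay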
Description: SANGER: Inhibition of human LB831-BLC cell growth in a cell viability assay.

LS-123 = type: functional, cell-based, Homo sapiens; details: Homo sapiens, LS-123
Description: SANGER: Inhibition of human LS-123 cell growth in a cell viability assay.

LXF-289 cell line = type: functional, cell-based; details: Homo sapiens
Description: SANGER: Inhibition of human LXF-289 cell growth in a cell viability assay.

MEG-01 = type: functional, cell-based, Homo sapiens; details: Homo sapiens, MEG-01;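 further: growth inhibition of MEG-01 cells, read out by a cell viability assay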
Description: SANGER: Inhibition of human MEG-01 cell growth in a cell viability assay.

MHH-NB-11 = type: functional, cell-based, Homo sapiens; details: Homo sapiens, MHH-NB-11;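 further: growth inhibition of human MHH-NB-11 cells, read out by a cell viability assay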
Description: SANGER: Inhibition of human MHH-NB-11 cell growth in a cell viability assay.

ML-2 = type: functional, cell-based, Homo sapiens; details: Homo sapiens, ML-2;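 further: growth inhibition of ML-2 cells, measured with a cell viability readout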
Description: SANGER: Inhibition of human ML-2 cell growth in a cell viability assay.

MOLT-4 = type: functional, cell-based, Homo sapiens; details: Homo sapiens, MOLT-4;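 further: growth inhibition of MOLT-4 cells, determined with a cell viability readout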
Description: SANGER: Inhibition of human MOLT-4 cell growth in a cell viability assay.

MS-1 = type: functional, cell-based, Homo sapiens; details: Homo sapiens, MS-1
Description: SANGER: Inhibition of human MS-1 cell growth in a cell viability assay.

NB13 = type: functional, cell-based, Homo sapiens; details: Homo sapiens, NB13;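 further: cell viability readout measuring growth inhibition of human NB13 cells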
Description: SANGER: Inhibition of human NB13 cell growth in a cell viability assay.

NB69 = type: functional, cell-based, Homo sapiens; details: Homo sapiens, NB69;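 further: growth inhibition of NB69 cells, determined by a cell viability assay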
Description: SANGER: Inhibition of human NB69 cell growth in a cell viability assay.

NCI-H209 = type: functional, cell-based, Homo sapiens; details: Homo sapiens, NCI-H209;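 further: growth inhibition of human NCI-H209 cells, measured by a cell viability assay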
Description: SANGER: Inhibition of human NCI-H209 cell growth in a cell viability assay.

NCI-H82 = type: functional, cell-based, Homo sapiens; details: Homo sapiens, NCI-H82;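 further: growth inhibition of NCI-H82 cells, measured with a cell viability readout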
Description: SANGER: Inhibition of human NCI-H82 cell growth in a cell viability assay.

NMC-G1 = type: functional, cell-based, Homo sapiens; details: Homo sapiens, NMC-G1;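 further: growth inhibition of the NMC-G1 cell line, measured with a cell viability read-out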
Description: SANGER: Inhibition of human NMC-G1 cell growth in a cell viability assay.

NTERA-2-cl-D1 = type: functional, cell-based, Homo sapiens; details: Homo sapiens, NTERA-2-cl-D1;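 further: inhibition of cell growth, measured with a cell viability assay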
Description: SANGER: Inhibition of human NTERA-S-cl-D1 cell growth in a cell viability assay.

Ramos-2G6-4C10 = type: functional, cell-based, Homo sapiens; details: Homo sapiens, Ramos-2G6-4C10;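 further: growth inhibition of the cell line, measured by a cell viability read-out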
Description: SANGER: Inhibition of human Ramos-2G6-4C10 cell growth in a cell viability assay.

SF-539 = type: functional, cell-based, Homo sapiens; details: Homo sapiens, SF-539;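 further: Read-out is a cell viability assay, with IC50 reflecting inhibition of cell growth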
Description: SANGER: Inhibition of human SF539 cell growth in a cell viability assay.

SHP77 = type: functional, cell-based, Homo sapiens, SHP-77; details: Homo sapiens, SHP77;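 further: growth inhibition of human SHP-77 cells measured by a cell viability assay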
Description: SANGER: Inhibition of human SHP-77 cell growth in a cell viability assay.

SJSA-1 = type: functional, cell-based, Homo sapiens; details: Homo sapiens, SJSA-1;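 further: growth inhibition of human SJSA-1 cells, read out through a cell viability measurement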
Description: SANGER: Inhibition of human SJSA-1 cell growth in a cell viability assay.

SK-LMS-1 = type: functional, cell-based, Homo sapiens; details: Homo sapiens, SK-LMS-1;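 further: growth inhibition of human SK-LMS-1 cells, read out with a cell viability assay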
Description: SANGER: Inhibition of human SK-LMS-1 cell growth in a cell viability assay.

SNB-75 = type: functional, cell-based, Homo sapiens; details: Homo sapiens, SNB-75;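 further: cell viability assay measuring growth inhibition of human SNB-75 cells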
Description: SANGER: Inhibition of human SNB75 cell growth in a cell viability assay.

SW684 = type: functional, cell-based, Homo sapiens; details: Homo sapiens, SW684; read-out: IC50;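 further: growth inhibition of human SW684 cells, measured by a cell viability assay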
Description: SANGER: Inhibition of human SW684 cell growth in a cell viability assay.

SW 954 = type: functional, cell-based, Homo sapiens; details: Homo sapiens, SW 954;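 further: growth inhibition of SW954 human cancer cells, read out as cell viability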
Description: SANGER: Inhibition of human SW954 cell growth in a cell viability assay.

SW982 = type: functional, cell-based; details: Homo sapiens;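 further: growth inhibition of SW982 cells, read out with a cell viability assay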
Description: SANGER: Inhibition of human SW982 cell growth in a cell viability assay.

TE-1 = type: functional, cell-based, Homo sapiens; details: Homo sapiens, TE-1;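 further: growth inhibition of the human TE-1 cell line, read out with a cell viability assay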
Description: SANGER: Inhibition of human TE-1 cell growth in a cell viability assay.

A3-KAW = type: functional, cell-based, Homo sapiens; details: Homo sapiens, A3-KAW;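 further: growth inhibition of human A3-KAW cells, read out with a cell viability assay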
Description: SANGER: Inhibition of human A3-KAW cell growth in a cell viability assay.

A388 = type: functional, cell-based; details: Homo sapiens;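 further: growth inhibition of human A388 cells, read out with a cell viability assay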
Description: SANGER: Inhibition of human A388 cell growth in a cell viability assay.

A704 = type: functional, cell-based; details: Homo sapiens;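 further: growth inhibition of human A704 cells, read out with a cell viability assay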
Description: SANGER: Inhibition of human A704 cell growth in a cell viability assay.

AM-38 = type: functional, cell-based, Homo sapiens; details: Homo sapiens, AM-38;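 further: growth inhibition of AM-38 cells of human origin, read out by a cell viability assay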
Description: SANGER: Inhibition of human AM-38 cell growth in a cell viability assay.

Becker = type: functional, cell-based, Homo sapiens; details: Homo sapiens, Becker;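 further: growth inhibition of Becker cells, read out with a cell viability assay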
Description: SANGER: Inhibition of human Becker cell growth in a cell viability assay.

TE-6 = type: functional, cell-based, Homo sapiens; details: Homo sapiens, TE-6;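 further: growth inhibition of TE-6 cells, read out with a cell viability assay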
Description: SANGER: Inhibition of human TE-6 cell growth in a cell viability assay.

TE-9 = type: functional, cell-based, Homo sapiens; details: Homo sapiens, TE-9;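 further: cell growth inhibition, measured with a cell viability readout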
Description: SANGER: Inhibition of human TE-9 cell growth in a cell viability assay.

TK-10 = type: functional, cell-based, Homo sapiens; details: Homo sapiens, TK-10;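 further: growth inhibition of TK-10 cells, read out in a cell viability assay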
Description: SANGER: Inhibition of human TK10 cell growth in a cell viability assay.

LB996-RCC = type: functional, cell-based, Homo sapiens; details: Homo sapiens, LB996-RCC
Description: SANGER: Inhibition of human LB996-RCC cell growth in a cell viability assay.

TGW = type: functional, cell-based, Homo sapiens; details: Homo sapiens, TGW;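 further: growth inhibition of human TGW cells, read out with a cell viability assay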
Description: SANGER: Inhibition of human TGW cell growth in a cell viability assay.

Structure (SMILES): CC1=C(/C=C/C(C)=C/C=C/C(C)=C/C(=O)O)C(C)(C)CCC1 [TRETINOIN]
- pIC50 (CTB-1): 5.79
- pIC50 (Calu-6): < 5.00
- pIC50 (D-502MG): < 5.00
- pIC50 (DB): 5.32
- pIC50 (DEL): < 5.00
- pIC50 (EM-2): 5.27
- pIC50 (ES5): < 5.00
- pIC50 (ES6): < 5.00
- pIC50 (ES8): < 5.00
- pIC50 (EW-13): 5.12
- pIC50 (GAK): < 5.00
- pIC50 (HDLM-2): < 5.00
- pIC50 (HT-144): < 5.00
- pIC50 (IST-MEL1): < 5.00
- pIC50 (K5): < 5.00
- pIC50 (L-428): < 5.00
- pIC50 (LB2518-MEL): < 5.00
- pIC50 (LB831-BLC): < 5.00
- pIC50 (LS-123): < 5.00
- pIC50 (LXF-289 cell line): < 5.00
- pIC50 (MEG-01): 5.02
- pIC50 (MHH-NB-11): < 5.00
- pIC50 (ML-2): 5.40
- pIC50 (MOLT-4): < 5.00
- pIC50 (MS-1): < 5.00
- pIC50 (NB13): 6.59
- pIC50 (NB69): < 5.00
- pIC50 (NCI-H209): 5.60
- pIC50 (NCI-H82): < 5.00
- pIC50 (NMC-G1): < 5.00
- pIC50 (NTERA-2-cl-D1): < 5.00
- pIC50 (Ramos-2G6-4C10): < 5.00
- pIC50 (SF-539): < 5.00
- pIC50 (SHP77): < 5.00
- pIC50 (SJSA-1): < 5.00
- pIC50 (SK-LMS-1): < 5.00
- pIC50 (SNB-75): < 5.00
- pIC50 (SW684): < 5.00
- pIC50 (SW 954): < 5.00
- pIC50 (SW982): < 5.00
- pIC50 (TE-1): < 5.00
- pIC50 (A3-KAW): 5.12
- pIC50 (A388): < 5.00
- pIC50 (A704): < 5.00
- pIC50 (AM-38): < 5.00
- pIC50 (Becker): < 5.00
- pIC50 (TE-6): < 5.00
- pIC50 (TE-9): < 5.00
- pIC50 (TK-10): < 5.00

Structure (SMILES): NC(=O)c1ccc(N(C(N)=O)c2c(F)cccc2F)nc1-c1ccc(F)cc1F [VX-702]
- pIC50 (CTB-1): < 5.70
- pIC50 (Calu-6): < 5.70
- pIC50 (D-502MG): < 5.70
- pIC50 (DB): < 5.70
- pIC50 (DEL): < 5.70
- pIC50 (EM-2): < 5.70
- pIC50 (ES5): < 5.70
- pIC50 (ES6): < 5.70
- pIC50 (ES8): < 5.70
- pIC50 (EW-13): < 5.70
- pIC50 (GAK): < 5.70
- pIC50 (HDLM-2): < 5.70
- pIC50 (HT-144): < 5.70
- pIC50 (IST-MEL1): < 5.70
- pIC50 (K5): 6.64
- pIC50 (L-428): < 5.70
- pIC50 (LB2518-MEL): < 5.70
- pIC50 (LB831-BLC): < 5.70
- pIC50 (LS-123): < 5.70
- pIC50 (LXF-289 cell line): < 5.70
- pIC50 (MEG-01): < 5.70
- pIC50 (MHH-NB-11): < 5.70
- pIC50 (ML-2): 6.64
- pIC50 (MOLT-4): < 5.70
- pIC50 (MS-1): < 5.70
- pIC50 (NB13): < 5.70
- pIC50 (NB69): < 5.70
- pIC50 (NCI-H209): 6.75
- pIC50 (NCI-H82): < 5.70
- pIC50 (NMC-G1): < 5.70
- pIC50 (NTERA-2-cl-D1): < 5.70
- pIC50 (Ramos-2G6-4C10): < 5.70
- pIC50 (SF-539): < 5.70
- pIC50 (SHP77): < 5.70
- pIC50 (SJSA-1): < 5.70
- pIC50 (SK-LMS-1): < 5.70
- pIC50 (SNB-75): < 5.70
- pIC50 (SW684): < 5.70
- pIC50 (SW 954): < 5.70
- pIC50 (SW982): < 5.70
- pIC50 (TE-1): < 5.70
- pIC50 (A3-KAW): < 5.70
- pIC50 (A388): < 5.70
- pIC50 (A704): < 5.70
- pIC50 (AM-38): < 5.70
- pIC50 (Becker): < 5.70
- pIC50 (TE-6): < 5.70
- pIC50 (TE-9): < 5.70
- pIC50 (TK-10): < 5.70

Structure (SMILES): Nc1ccccc1NC(=O)c1ccc(CNC(=O)OCc2cccnc2)cc1 [ENTINOSTAT]
- pIC50 (CTB-1): 5.52
- pIC50 (Calu-6): < 5.30
- pIC50 (D-502MG): < 5.30
- pIC50 (DB): 5.77
- pIC50 (DEL): 6.43
- pIC50 (EM-2): 6.62
- pIC50 (ES5): < 5.30
- pIC50 (ES6): 6.02
- pIC50 (ES8): 6.44
- pIC50 (EW-13): < 5.30
- pIC50 (HDLM-2): 5.77
- pIC50 (HT-144): 6.52
- pIC50 (IST-MEL1): 5.93
- pIC50 (K5): 6.33
- pIC50 (L-428): 5.60
- pIC50 (LB2518-MEL): 6.03
- pIC50 (LB831-BLC): 5.74
- pIC50 (LB996-RCC): 5.83
- pIC50 (LS-123): 5.63
- pIC50 (LXF-289 cell line): 6.02
- pIC50 (MEG-01): 5.91
- pIC50 (MHH-NB-11): 6.36
- pIC50 (ML-2): 5.63
- pIC50 (MOLT-4): 5.99
- pIC50 (MS-1): < 5.30
- pIC50 (NB13): 6.18
- pIC50 (NB69): 6.22
- pIC50 (NCI-H209): 6.39
- pIC50 (NCI-H82): 5.79
- pIC50 (NMC-G1): 6.39
- pIC50 (NTERA-2-cl-D1): 6.70
- pIC50 (Ramos-2G6-4C10): 6.36
- pIC50 (SF-539): 6.71
- pIC50 (SHP77): 5.40
- pIC50 (SJSA-1): 5.82
- pIC50 (SK-LMS-1): < 5.30
- pIC50 (SNB-75): < 5.30
- pIC50 (SW684): < 5.30
- pIC50 (SW 954): 6.12
- pIC50 (TE-1): 6.26
- pIC50 (A3-KAW): 6.75
- pIC50 (A388): 5.82
- pIC50 (AM-38): < 5.30
- pIC50 (Becker): 5.36
- pIC50 (TE-6): < 5.30
- pIC50 (TE-9): 5.73
- pIC50 (TGW): 5.97
- pIC50 (TK-10): 5.74
